Measured values published in US20200371122A1, “BIOMARKER FOR SENESCENT CELLS” (Buck Institute for Research on Aging, priority 2017, published 2020).

Assays:
Format in all cases: cell-based, human
SASP factors = assay: qPCR of SASP and PTGS mRNAs in non-senescent cells treated with eicosanoids; conditions: 10 μM
Method: RNA was extracted from cells or tissues using commercially available kits (Isolate II—Bioline for cells; Direct-zol—Zymo for tissues) according to the manufacturer's instructions. cDNA synthesis was performed using a High Capacity cDNA Reverse Transcription Kit (Thermo Fisher) according to the manufacturer's instructions. Quantitative PCR was performed on a LightCycler 480 II (Roche) using primers and probes designed for the Universal Probe Library. Primers and probes used for human transcripts were ACTB: 5′-CCAACCGCGAGAAGATGA (SEQ ID NO:1), 5′-TCCATCACGATGCCAGTG (SEQ ID NO:2), Probe #64; TUBA: 5′-cttcgtctccgccatcag (SEQ ID NO:3), 5′-ttgccaatctggacacca (SEQ ID NO:4), Probe #58; ALOX5: 5′-[…] (SEQ ID NO:5), 5′-[…] (SEQ ID NO:6), Probe #64; ALOX5AP: 5′-ggtctgcggggctacttt (SEQ ID NO:7), 5′-[…] (SEQ ID NO:8), Probe #18; ALOX12: 5′-[…] (SEQ ID NO:9), 5′-agccaggtcgtcaggag (SEQ ID NO:10), Probe #32; ALOX15: 5′-[…] (SEQ ID NO:11), 5′-[…] (SEQ ID NO:12), Probe #76; ALOX15B: 5′-[…] (SEQ ID NO:13), 5′-actgggaggcgaagaagg (SEQ ID NO:14), Probe #51; AKR1C1: 5′-catgcctgtcctgggattt (SEQ ID NO:15), 5′-[…] (SEQ ID NO:16), Probe #49; AKR1C2: 5′-ctatgcgcctgcagaggt (SEQ ID NO:17), 5′-[…] (SEQ ID NO:18), Probe #31; AKR1C3: 5′-[…] (SEQ ID NO:19), 5′-[…] (SEQ ID NO:20), Probe #78; CYSLTR2: 5′-[…] (SEQ ID NO:21), 5′-[…] (SEQ ID NO:22), Probe #18; DPEP1: 5′-gacgtcctgaggctggtg (SEQ ID NO:23), 5′-[…] (SEQ ID NO:24), Probe #9 (SEQ ID NO:25), ELOVL2: 5′-[…] (SEQ ID NO:26), 5′-[…] (SEQ ID NO:27), Probe #53; ELOVL4: 5′-catttggcccatggattc (SEQ ID NO:28), 5′-[…] (SEQ ID NO:29), Probe #31; ELOVL5: 5′-cccttccatgcgtccata (SEQ ID NO:30), 5′-[…] (SEQ ID NO:31), Probe #31; EPHX2: 5′-ttctgctggacaccctgaa (SEQ ID NO:32), 5′-[…] (SEQ ID NO:33), Probe #45; GPX4: 5′-ttcccgtgtaaccagttcg (SEQ ID NO:34), 5′-[…] (SEQ ID NO:35), Probe #36; LTA4H: 5′-ctgctctcacggtccagtc (SEQ ID NO:36), 5′-[…] (SEQ ID NO:37), Probe #64; LTBR2: 5′-[…] (SEQ ID NO:38), 5′-[…] (SEQ ID NO:39), Probe #33; LTC4S: 5′-[…] (SEQ ID NO:40), 5′-[…] (SEQ ID NO:41), Probe #18; PTGDS: 5′-[…] (SEQ ID NO:42), 5′-[…] […]

IMR-90 fibroblasts = assay: Induction of senescence in non-senescent cells by prostaglandins or 5-LOX pathway products (EdU, SA-B-gal, p21, immunoblot)
Method: RNA was extracted from cells or tissues using commercially available kits (Isolate II—Bioline for cells; Direct-zol—Zymo for tissues) according to the manufacturer's instructions. cDNA synthesis was performed using a High Capacity cDNA Reverse Transcription Kit (Thermo Fisher) according to the manufacturer's instructions. Quantitative PCR was performed on a LightCycler 480 II (Roche) using primers and probes designed for the Universal Probe Library. Primers and probes used for human transcripts were ACTB: 5′-CCAACCGCGAGAAGATGA (SEQ ID NO:1), 5′-TCCATCACGATGCCAGTG (SEQ ID NO:2), Probe #64; TUBA: 5′-cttcgtctccgccatcag (SEQ ID NO:3), 5′-ttgccaatctggacacca (SEQ ID NO:4), Probe #58; ALOX5: 5′-[…] (SEQ ID NO:5), 5′-[…] (SEQ ID NO:6), Probe #64; ALOX5AP: 5′-ggtctgcggggctacttt (SEQ ID NO:7), 5′-[…] (SEQ ID NO:8), Probe #18; ALOX12: 5′-[…] (SEQ ID NO:9), 5′-agccaggtcgtcaggag (SEQ ID NO:10), Probe #32; ALOX15: 5′-[…] (SEQ ID NO:11), 5′-[…] (SEQ ID NO:12), Probe #76; ALOX15B: 5′-[…] (SEQ ID NO:13), 5′-actgggaggcgaagaagg (SEQ ID NO:14), Probe #51; AKR1C1: 5′-catgcctgtcctgggattt (SEQ ID NO:15), 5′-[…] (SEQ ID NO:16), Probe #49; AKR1C2: 5′-ctatgcgcctgcagaggt (SEQ ID NO:17), 5′-[…] (SEQ ID NO:18), Probe #31; AKR1C3: 5′-[…] (SEQ ID NO:19), 5′-[…] (SEQ ID NO:20), Probe #78; CYSLTR2: 5′-[…] (SEQ ID NO:21), 5′-[…] (SEQ ID NO:22), Probe #18; DPEP1: 5′-gacgtcctgaggctggtg (SEQ ID NO:23), 5′-[…] (SEQ ID NO:24), Probe #9 (SEQ ID NO:25), ELOVL2: 5′-[…] (SEQ ID NO:26), 5′-[…] (SEQ ID NO:27), Probe #53; ELOVL4: 5′-catttggcccatggattc (SEQ ID NO:28), 5′-[…] (SEQ ID NO:29), Probe #31; ELOVL5: 5′-cccttccatgcgtccata (SEQ ID NO:30), 5′-[…] (SEQ ID NO:31), Probe #31; EPHX2: 5′-ttctgctggacaccctgaa (SEQ ID NO:32), 5′-[…] (SEQ ID NO:33), Probe #45; GPX4: 5′-ttcccgtgtaaccagttcg (SEQ ID NO:34), 5′-[…] (SEQ ID NO:35), Probe #36; LTA4H: 5′-ctgctctcacggtccagtc (SEQ ID NO:36), 5′-[…] (SEQ ID NO:37), Probe #64; LTBR2: 5′-[…] (SEQ ID NO:38), 5′-[…] (SEQ ID NO:39), Probe #33; LTC4S: 5′-[…] (SEQ ID NO:40), 5′-[…] (SEQ ID NO:41), Probe #18; PTGDS: 5′-[…] (SEQ ID NO:42), 5′-[…] (SEQ ID NO:43), Probe #36; PTGES: 5′-agagatgcctgcccacag (SEQ ID NO:44), 5′-tggccaccacgtacatctt (SEQ ID NO:45), Probe #4; PTGES2: 5′-[…] (SEQ ID NO:46), 5′-[…] (SEQ ID NO:47), Probe #49; PTGES3 (SEQ ID NO:48), 5′-[…] (SEQ ID NO:49), 5′-[…] (SEQ ID NO:50), Probe #48; PTGIS: 5′-[…] (SEQ ID NO:51), 5′-[…] (SEQ ID NO:52), Probe #45; PTGR1: 5′-atgatggggcagcaagtg (SEQ ID NO:53), 5′-cccatcagaaatggagtgc (SEQ ID NO:54), Probe #64; PTGS1: 5′-[…] (SEQ ID NO:55), 5′-gtggtggtccatgttcctg (SEQ ID NO:56), Probe #81; PTGS2: 5′-gatccccagggctcaaac (SEQ ID NO:57), 5′-[…] (SEQ ID NO:58), Probe #61; TBXAS1: 5′-[…] (SEQ ID NO:59), 5′-tgcctcccgtgtgaatct (SEQ ID NO:60), Probe #73; AREG: 5′-[…] (SEQ ID NO:61), 5′-[…] (SEQ ID NO:62), Probe #73; CCL2: 5′-AGTCTCTGCCGCCCTTCT (SEQ ID NO:63), 5′-GTGACTGGGGCATTGATTG (SEQ ID NO:64), Probe #40; CCL27: 5′-[…] (SEQ ID NO:65), 5′-gctgggtggcagtaggaat (SEQ ID NO:66), Probe #18; CXCL1: 5′-[…] (SEQ ID NO:67), 5′-[…] (SEQ ID NO:68), Probe #52; HGF: 5′-[…] (SEQ ID NO:69), 5′-[…] (SEQ ID NO:70), Probe #49; ILIA: 5′-[…] (SEQ ID NO:71), 5′-[…] (SEQ ID NO:72), Probe #6; IL1B: 5′-[…] (SEQ ID NO:73), 5′-[…] (SEQ ID NO:74), Probe #78; IL6: 5′-[…] (SEQ ID NO:75), 5′-gaaggcagcaggcaacac (SEQ ID NO:76), Probe #45; IL8: 5′-[…] (SEQ ID NO:77), 5′-atggttccttccggtggt (SEQ ID NO:78), Probe #72; IL10: 5′-[…] (SEQ ID NO:79), 5′-[…] (SEQ ID NO:80), Probe #67; MMP3: 5′-[…] (SEQ ID NO:81), 5′-[…] (SEQ ID NO:82), Probe #36; PDGFA: 5′-[…] (SEQ ID NO:83), 5′-[…] (SEQ ID NO:84), Probe #80; VEGF: 5′-[…] (SEQ ID NO:85), 5′-[…] (SEQ ID NO:86), Probe #50; P21WAF1(CDKN1A): 5′-[…]

[1] = system: IMR-90 fibroblasts depleted of p53 by shRNA; assay: Prostaglandin treatment of p53-depleted (shp53) IMR-90 fibroblasts (Ki67, cleaved caspase 3); conditions: shp53 cells, 3 days
Method: For EdU labeling, cells were cultured with EdU (10 μM) for 24 h, fixed in 4% buffered formalin for 10 min, washed in PBS, and permeabilized in 0.5% Triton X-100 for 30 min. Cells were treated as instructed by the manufacturer Life Technologies Cat #C10337). For immunofluorescence, cells were blocked in 10% normal goat serum for 30 min, washed, and incubated overnight in antibodies to Ki67 (Abcam) or cleaved caspase 3 (Cell Signaling). Cell were then washed, incubated in fluorescent secondary antibodies, and mounted using vectashield mounting medium with DAPI.

IL-6 secretion = assay: IL-6 ELISA on non-senescent cells treated with prostaglandins; conditions: 10 μM, 10 days
Method: Human fetal lung fibroblasts (IMR-90) were cultured in Dulbecco's modified eagle medium (DMEM) supplemented with 10% FBS and penicillin/streptomycin. LL 29 (AnHa) cells were obtained from the ATCC and growth to confluence using the ATCC protocol, but were subcultured as described for IMR-90 before initiation of all experiments. Quiescence was induced by replacing culture media with media containing 0.2% FBS. MCF-7 and MDA-MB-231 breast cancer cells were cultured in RPMI supplemented with 10% FBS and penicillin/streptomycin. All cells were cultured at 3% O2, and used between 25 and 40 population doublings. All cells were mycoplasma free.
3×10^4 cells in 12-well plates were treated as indicated in the text, and cultured in 0.5-1 ml serum-free DMEM for 24 hr. CM were collected and clarified at 2,000×g for 10 min. Supernatants were transferred to a tube; cells were trypsinized and counted. CM (2.5 μl) were analyzed by bead-based ELISAs (AlphaLISA, Perkin-Elmer) as instructed by the manufacturer and normalized to cell number.

SMILES | PTGES mRNA (SASP factors) | cell size and proliferation once prostaglandin was removed (IMR-90 fibroblasts; 10 μM 7 days, then 10 days release) | senescence-associated beta-galactosidase (IMR-90 fibroblasts; 10 μM, 10 days) | SASP factor mRNAs (SASP factors; for PGJ2 and 15d-PGJ2 most factors except VEGF and PDGF) | levels of LMNB1 and cellular HMGB1 (IMR-90 fibroblasts; 10 μM, 10 days) | p21 gene expression (IMR-90 fibroblasts; 10 μM, 10 days) | p21 protein accumulation (IMR-90 fibroblasts; 10 μM, 10 days, immunoblot) | p53 stabilization (IMR-90 fibroblasts; 10 μM, 10 days, immunoblot) | p53 phosphorylation or acetylation (IMR-90 fibroblasts; 10 μM, 10 days, western blot) | expression of MMP3 and secretion of IL-6 on removal of the prostaglandin (IMR-90 fibroblasts; release after 7 days at 10 μM) | apoptosis (positivity for cleaved caspase 3) [1] | continued cell division (Ki67 positivity) after loss of p53 [1] | IL-6 secretion (IL-6 secretion)
CCCCC[C@H](O)/C=C/[C@H]1[C@H](O)CC(=O)[C@@H]1C/C=C\CCCC(=O)O [PGE2, prostaglandin E2] | elevated | became smaller and resumed proliferation | induced | – | – | – | – | – | – | – | – | – | –
CCCCC[C@H](O)/C=C/[C@H]1C(=O)C=C[C@@H]1C/C=C\CCCC(=O)O [PGJ2] | – | – | induced | strongly induced | reduced levels | induced | induced | stabilized | without increasing | reduced | underwent apoptosis | did not allow | highest induction
